# Measured values as given in patent US20240316146A1, “METHODS OF REDUCING NEUROPATHY AND NEUROPATHIC SYMPTOMS AND TREATING CANCER” (Bexion Pharmaceuticals Inc., priority 2021, published 2024).
# Where “and” joins values, the source holds several entries; their conditions need not be identical. Equal entries are not always repeated.
# Assays:
# [1] = tested on: mouse oxaliplatin model of chemotherapy-induced neuropathy; assay: Static mechanical (tactile) allodynia, von Frey filaments, Study 1; type: in vivo
# Protocol: (§1) 60 adult male C57/BL6 mice (Charles River), 6-7 weeks of age, were housed in groups of 5 in Perspex cages, in a controlled environment of constant temperature and humidity (temperature: 21±1° C., light: dark cycle of 12:12 hours), with food and water available ad libitum. Animals were allowed to recover from transportation for at least one week before commencing experiments.
# (§2) Static mechanical tactile allodynia: Static mechanical (tactile) allodynia was assessed by measurement of withdrawal threshold using calibrated (force; g) von-Frey monofilaments (Touch-Test Sensory Evaluator; Scientific Marketing Associates) applied to the plantar surface of the left hind-paw. The animals were placed in individual Perspex boxes on a raised metal mesh for 30-40 min before the test to habituate. A series of graduated von Frey hairs (0.07, 0.16, 0.4, 0.6 and 1 g) were applied in sequence with a protocol of 1 sec on 1 sec off repeated 10 times. Each hair was applied perpendicularly to the center of the ventral surface of the paw until it bent slightly. The force applied to the hind-paw of the animal to induce 5 responses out of 10 trials was recorded as paw withdrawal threshold (PWT) 50%.
# (§3) Warm vials of BQX-350 were brought to room temperature and reconstituted with 4 mL water for injection via syringe. The vials were gently agitated and/or vortexed for 15-20 sec and allowed to sit at room temp for 5 mins. The rehydrated solution contained 2.2 mg/mL SapC (8.8 mg SapC per vial). About […] of the formulation was injected to achieve a target dose of 20 mg/kg in each mouse. Pregabalin was reconstituted in water and injected to achieve a target dose of 30 mg/kg in each mouse.
# (§4) A two-way repeated measures ANOVA with ‘treatment’ as a between subjects effect, and ‘day’ as a within subjects effect was used (using GraphPad Prism version 9.0 for Windows, GraphPad Software, San Diego California USA), followed by Dunnett's multi comparisons test. Data is presented as mean±SEM.
# Body weights, Study 2 = type: in vivo, mouse; settings: Group E Oxaliplatin/Pregabalin, individual mice
# From the text: Body Weights: The mice were weighed daily starting 1 day prior to treatment through day 9.
# [2] = tested on: mouse oxaliplatin model of chemotherapy-induced neuropathy; assay: Static mechanical (tactile) allodynia, von Frey filaments, Study 2; type: in vivo; settings: for PWT 50% (left hind paw Paw Withdrawal Threshold 50%): Group E Oxaliplatin/Pregabalin 30 mg/kg (days 3, 5, 7, 9), N 12; for Individual Paw Withdrawal Threshold 50% (von Frey filaments): Study 2, oxaliplatin 10 mg/kg IP day 0 (+vehicle, BXQ-350 2 mg/kg IP or pregabalin 30 mg/kg IP), individual mice
# Protocol: as §2, §1
# Static mechanical tactile allodynia: The same apparatus and protocol were used as for Study 1.
# [3] = tested on: mouse oxaliplatin model of chemotherapy-induced neuropathy; assay: Thermal hypersensitivity, cold plate test 15° C., Study 1; type: in vivo
# Protocol: as §1
# (§5) Thermal hypersensitivity: Thermal hypersensitivity was assessed using a dynamic cold plate (Bioseb, France) set at a fixed temperature of 15° C. This method allows analysis of more integrated behaviors rather than reflex behaviors, e.g., the tail immersion test. In animal studies, thermal sensitivity is mostly evaluated based on nociceptive reaction latencies in response to a given thermal aversive stimulus. In this classical test, the temperature of the plate is fixed and remains constant: the latency to the first paw licking, jumps or withdrawal is taken as an index of nociceptive threshold. […] The results of the study are shown in Table 5 (raw data) below, Table 6 (summary) below, FIG. 4, and FIG. 5.
# as §3, §4
# [4] = tested on: mouse oxaliplatin model of chemotherapy-induced neuropathy; assay: Thermal hypersensitivity, cold plate test, Study 2; settings: Group E Oxaliplatin/Pregabalin 30 mg/kg (days 3, 5, 7, 9), N 12
# Protocol: as §5, §1
# Thermal hypersensitivity: The same apparatus and protocol were used as for Study 1. The results of Study 2 are shown in Table 11 (raw data), Table 12 (summary), FIG. 8, and FIG. 9.
# [5] = tested on: A549 tumor spheroids with PBMCs; assay: 3D-tumor spheroid T-cell killing model (Incucyte); type: cell-based, human; settings: BXQ-350 1.3 nM to 2.8 μM or Pembrolizumab 50 μg/ml; PBMCs with activation cocktail; day 6
# Protocol: A549 human lung cancer cells, transfected with a lentivirus, were seeded in 96-wells ultra-low attachment plates at a concentration of 750 cells/well. The plates were then centrifuged at 1200 rpm for 2 min, to promote agglomeration of the cells and formation of spheroids. The plates then were incubated for three days at 37° C. After three days, freshly isolated human peripheral blood mononuclear cells (PBMCs) were added to the spheroids at a concentration of 10,000 PBMCs/well. To various wells were added one or more of: an activation cocktail containing an anti-CD3 antibody at a final concentration of 1 ng/ml and IL-12 at a final concentration of 10 ng/ml; BXQ-350 in serial dilutions from 25 μM to 1.27 nM; a positive control of Pembrolizumab at 50 μg/ml. A negative control group had no additions to the spheroids and PBMCs. The final volume of each well was then adjusted to 200 μL per well.
# Plates were then left to incubate for an additional 30 minutes before being placed in the Incucyte® live cells analyzer; fluorescence was analyzed every 4 hours for 6 days. Images were then analyzed using the Incucyte® software to determine the IC50. Increased fluorescence intensity in A549 tumor cell spheroids correlates to an increased number of live Luc-A549 cells in the spheroids, and a lack of fluorescence denotes cell death.
# [6] = oxaliplatin 10 mg/kg IP day 0 (+vehicle, BXQ-350 20 mg/kg IP or pregabalin 30 mg/kg IP), Baseline, individual mice
# [7] = oxaliplatin 10 mg/kg IP day 0 (+vehicle, BXQ-350 20 mg/kg IP or pregabalin 30 mg/kg IP), Day 3, individual mice
# [8] = oxaliplatin 10 mg/kg IP day 0 (+vehicle, BXQ-350 20 mg/kg IP or pregabalin 30 mg/kg IP), group mean
# [9] = oxaliplatin treated animals, day 3 to day 9, BXQ-350 20 mg/kg, pregabalin 30 mg/kg 2 hours before assessment
# [10] = cold plate 15° C., oxaliplatin 10 mg/kg IP day 0 (+vehicle, BXQ-350 20 mg/kg IP or pregabalin 30 mg/kg IP), group mean
molecule,measurement,setting,value
CC(C)C[C@H](CN)CC(=O)O [Pregabalin],Individual Paw Withdrawal Threshold 50% (von Frey filaments),[1]; [6],0.8 g (4×) and 0.6 g (2×) and 1.0 g (2×) and 0.4 g (2×) and 0.7 g and 0.5 g
same,Individual Paw Withdrawal Threshold 50% (von Frey filaments),[1]; [7],1.0 g (3×) and 0.6 g
same,PWT 50% (g) Baseline,[1]; [8],0.698 g
same,PWT 50% (g) D3,[1]; [8],*0.733 g
same,PWT 50% (g) D5,[1]; [8],***0.800 g
same,PWT 50% (g) D7,[1]; [8],**0.733 g
same,PWT 50% (g) D9,[1]; [8],****0.883 g
same,mechanical allodynia (in words),[1]; [9],reduced mechanical allodynia
same,Individual body weights,"Body weights, Study 2; D 0",21.9 g and 23.6 g (2×) and 28.1 g and 23.7 g and 25.7 g (2×) and 24.9 g and 21.8 g and 26.2 g and 23.4 g and 25.1 g
same,Individual body weights,"Body weights, Study 2; D 1",21.6 g and 23.0 g and 26.8 g and 22.7 g and 25.2 g and 25.1 g and 23.1 g and 24.5 g and 23.6 g and 24.8 g and 22.6 g and 24.4 g
same,Individual body weights,"Body weights, Study 2; D 2",21.8 g and 23.1 g and 27.0 g and 22.7 g and 25.1 g and 25.4 g and 23.8 g and 23.6 g and 23.4 g and 25.0 g and 22.8 g and 24.3 g
same,Individual body weights,"Body weights, Study 2; D 3",21.8 g and 23.0 g and 26.6 g and 22.6 g and 24.7 g and 25.5 g and 23.4 g and 22.4 g and 22.9 g and 24.8 g and 22.8 g and 24.0 g
same,Individual body weights,"Body weights, Study 2; D 4",21.8 g and 23.0 g and 27.0 g and 22.3 g and 25.0 g and 24.8 g and 23.4 g and 23.5 g and 23.7 g and 24.9 g and 23.1 g and 24.0 g
same,Individual body weights,"Body weights, Study 2; D 5",21.4 g and 24.0 g and 27.6 g and 22.9 g
same,Individual body weights,"Body weights, Study 2; D −1",21.9 g and 23.7 g and 27.9 g and 23.2 g (2×) and 23.4 g and 25.3 g and 23.3 g and 24.5 g and 24.2 g and 25.7 g and 24.8 g
same,Individual body weights,"Body weights, Study 2; D −2",21.9 g and 23.1 g and 27.6 g and 22.7 g and 25.6 g and 25.9 g and 23.3 g and 24.6 g and 23.8 g and 25.4 g and 22.8 g and 24.4 g
same,Individual body weights,"Body weights, Study 2; D −3",22.0 g and 23.0 g (4×) and 28.0 g and 26.0 g (3×) and 25.0 g (2×) and 24.0 g
same,PWT 50% (left hind paw Paw Withdrawal Threshold 50%),"[2]; D3, mean (SEM)",****0.933 g
same,PWT 50% (left hind paw Paw Withdrawal Threshold 50%),"[2]; D5, mean (SEM)",****0.833 g
same,PWT 50% (left hind paw Paw Withdrawal Threshold 50%),"[2]; D7, mean (SEM)",****0.817 g
same,PWT 50% (left hind paw Paw Withdrawal Threshold 50%),"[2]; D9, mean (SEM)",****0.967 g
same,PWT 50% (left hind paw Paw Withdrawal Threshold 50%),"[2]; D −1, mean (SEM)",0.697 g
same,PWT 50% (left hind paw Paw Withdrawal Threshold 50%),"[2]; D −2, mean (SEM)",0.600 g
same,PWT 50% (left hind paw Paw Withdrawal Threshold 50%),"[2]; D −3, mean (SEM)",0.633 g
same,Individual Paw Withdrawal Threshold 50% (von Frey filaments),[2]; D 3,1.0 g (10×) and 0.6 g (2×)
same,Individual Paw Withdrawal Threshold 50% (von Frey filaments),[2]; D 5,1.0 g (7×) and 0.6 g (5×)
same,Individual Paw Withdrawal Threshold 50% (von Frey filaments),[2]; D 7,1.0 g (7×) and 0.6 g (4×) and 0.4 g
same,Individual Paw Withdrawal Threshold 50% (von Frey filaments),[2]; D 9,1.0 g (11×) and 0.6 g
same,Individual Paw Withdrawal Threshold 50% (von Frey filaments),[2]; D −1,1.0 g (5×) and 0.6 g (4×) and 0.4 g (2×) and 0.2 g
same,Individual Paw Withdrawal Threshold 50% (von Frey filaments),[2]; D −2,0.4 g (2×) and 0.6 g (9×) and 1.0 g
same,Individual Paw Withdrawal Threshold 50% (von Frey filaments),[2]; D −3,0.6 g (8×) and 1.0 g (2×) and 0.4 g (2×)
same,Latency (s) Baseline,[3]; [10],53.629 s
same,Latency (s) D 3,[3]; [10],49.400 s
same,Latency (s) D 5,[3]; [10],50.000 s
same,Latency (s) D 7,[3]; [10],47.183 s
same,Latency (s) D 9,[3]; [10],59.300 s
same,Individual latency to displaying withdrawal behaviour in the cold plate test,[3]; [6],52.9 s and 74.9 s and 74.7 s and 57.3 s and 48.6 s and 40.2 s and 57.5 s and 67.5 s and 38.5 s and 44.8 s and 41.3 s and 45.6 s
same,Individual latency to displaying withdrawal behaviour in the cold plate test,[3]; [7],56.7 s and 52.4 s and 44.4 s and 62.3 s and 57.6 s and 46.9 s and 63.6 s and 40.8 s and 58.2 s and 36.5 s and 52.5 s and 20.9 s
same,Individual latency to displaying withdrawal behaviour in the cold plate test,"[3]; oxaliplatin 10 mg/kg IP day 0 (+vehicle, BXQ-350 20 mg/kg IP or pregabalin 30 mg/kg IP), Day 5, individual mice",22.2 s and 43.5 s and 91.7 s and 73.6 s and 41.5 s and 39.3 s and 61.3 s and 40.1 s and 30.1 s and 42.7 s and 45.2 s and 68.8 s
same,Individual latency to displaying withdrawal behaviour in the cold plate test,"[3]; oxaliplatin 10 mg/kg IP day 0 (+vehicle, BXQ-350 20 mg/kg IP or pregabalin 30 mg/kg IP), Day 7, individual mice",60.2 s and 40.3 s and 72.5 s and 98.2 s and 55.5 s and 29.3 s and 32.1 s and 35.2 s and 35.8 s and 32.5 s and 31.4 s and 43.2 s
same,Individual latency to displaying withdrawal behaviour in the cold plate test,"[3]; oxaliplatin 10 mg/kg IP day 0 (+vehicle, BXQ-350 20 mg/kg IP or pregabalin 30 mg/kg IP), Day 9, individual mice",37.8 s and 71.7 s and 75.8 s and 54.0 s and 72.7 s and 34.6 s and 84.7 s and 71.5 s and 74.9 s and 42.7 s and 38.9 s and 52.3 s
same,"thermal (cold) sensitivity, cold plate test (in words)",[3]; [9],reduced thermal sensitivity
same,Latency to withdrawal behaviour in the cold plate test (15° C.),"[4]; D3, mean (SEM)",***77.083 + s
same,Latency to withdrawal behaviour in the cold plate test (15° C.),"[4]; D5, mean (SEM)",31.188 + s
same,Latency to withdrawal behaviour in the cold plate test (15° C.),"[4]; D7, mean (SEM)",*42.792 + s
same,Latency to withdrawal behaviour in the cold plate test (15° C.),"[4]; D9, mean (SEM)",42.063 + s
same,Latency to withdrawal behaviour in the cold plate test (15° C.),"[4]; D −1, mean (SEM)",43.175 + s
same,Latency to withdrawal behaviour in the cold plate test (15° C.),"[4]; D −2, mean (SEM)",44.725 + s
same,Latency to withdrawal behaviour in the cold plate test (15° C.),"[4]; D −3, mean (SEM)",43.908 + s
Pembrolizumab: positive control at 50 μg/ml in the spheroid model,cell death of spheroids (in words),[5],increased cell death by day 6
